Measurements taken from US4839380A, “1-Thiocarbamoylmethylpyrrolidine-2-thione, medical compositions of, and anti-hypoxic and nootropic use thereof” (priority 1988, dated 1989).

Legend:
[1] = system: mice; assay: Lifespan of mice under acute hypoxic hypoxia with hypercapnia (sealed chamber); type: in vivo, mice (nondescript white male)
Experimental: (§1) The antihypoxic effect of the compound according to the present invention was studied in comparison with pyracetam on various experimental models of hypoxic states in experiments on mice and rats. The compound according to the present invention and pyracetam were administered intraperitoneally in the form of an aqueous emulsion prepared with Tween-80.
Tests were carried out on a model of an acute hypoxic hypoxia with hypercapnia.
The tests were conducted using 540 nondescript while male mice with a mass of 20-22 g. Each mouse was separately placed into a sealed chamber (with the capacity of 250 ml) 60 minutes after administration of the compound according to the present invention in the doses of 50, 100, 250, 500 and 750 mg/kg. The control animals were issued with an isotonic solution of sodium chloride. The antihypoxic activity was assessed by the lifespan of the mice in the sealed chamber (in minutes).

[2] = system: mice; assay: Acute hypobaric hypoxia: lifespan of mice at the height of 11,000 m; type: in vivo, mice (male, tetrahybrids)
Experimental: as §1
(§2) The studies were carried out on a model of an acute hypobaric hypoxia.
(§3) An acute […] hypoxia was modelled in a flow-type barometric chamber at an ambient temperature of 17°-20° C. with absorption of carbon dioxide and water.
(§4) The test animals (male mice, tetrahybrids) with a mass of 15-22 g of the same generation were "lifted" (under simulation conditions) at the mean speed of 50 m/sec to the height of 11,000 m at which the lifespan (in minutes) for the same series of experiments was evaluated. Furthermore, the mice were discretely lifted at the same speed to the height of 10,000 m where they stayed for 1 minute and then to the height of 11,000 m, where they again were kept for 1 minute and so on, till their death for the determination of the height "ceiling", The animals' death was adjudicated by the occurrence of an agonal breathing against the background of convulsions. The total number of mice employed in the experiments was 200.
(§5) As the comparison preparation pracetam was used. The compound according to the present invention and pyracetam were administered one hour before the "lift".

[3] = system: mice; assay: Acute hypobaric hypoxia: height ceiling for mice (Hmax); type: in vivo, mice (male, tetrahybrids)
Experimental: as §1, §2, §3, §4, §5

[4] = system: mice; assay: Acute normobaric hypoxia: lifespan of mice; type: in vivo
Experimental: as §1
(§6) Investigations were also carried out with a model of an acute normobaric hypoxia.
(§7) An acute normobaric hypoxia was simulated in a flow-type barometric chamber at an ambient temperature of 17°-22° C. with absorption of carbon dioxide and water. A gas mixture ([…] and 3% of O2) was admitted into the barometric chamber at the rate of 10 1/min. The lifespan of test animals (mice, rats) in the chambers was recorded since the moment of the mixture admission into the chamber till the moment of perdition of the animals which was adjudicated by an agonal breathing against the background of convulsions. The modes of administration of the preparations, species of animals and analysis of the results of the experiments are similar to those described hereinbefore for the case of an acute hypobaric hypoxia. The experiments were carried out using 50 mice and 20 rats.

[5] = system: rats; assay: Acute normobaric hypoxia: lifespan of rats; type: in vivo
Experimental: as §1, §6, §7

[6] = system: rats; assay: Learning speed and performing of electrodefensive conditioned reflex of avoidance; type: in vivo, rats (nondescript male)
Excerpt: The study of the compound according to the present invention for the speed of learning and performing the produced conditioned reflux was effected in experiments on rats using the method of electrodefensive conditioned reflexes of avoidance.
The study of the effect on the learning speed and fulfilment of the elaborated conditioned reflex was effected on 40 nondescript male rats with a mass of 150170 g (4 groups of 10 rats in each) by the method of electrodefensive conditioned reflexes. Conditioned reflexes were trained in all rats for ringing used as a conditional irritation signal supported by a non-conditional irritating agent--electric current (40-50 V) supplied to an electrified floor of a conditioned-reflex chamber. As the criterion for the elaboration of the conditioned reflex the rat's jump onto a stand in response to switching-on of a bell during the first 10 seconds after the beginning of the sound was assumed.
All rats, against the background of elaboration of conditioned reflexes, were administered over 3 weeks (5 times a week) with: the first group--the compound according to the present invention in the dose of 250 mg/kg; the second and third group--pyracetam in the doses of 500 and 1,000 mg/kg; and the fourth group--control--isotonic solution of sodium chloride. The administration was effected intraperiotoneally 24 hours before the experiment.

[7] = Convulsions caused by thiosemicarbazide; type: in vivo, white mice
Excerpt: The interaction of the compound according to the present invention with thiosemicarbazide--a specific antagonist of gamma-aminobutyric acid (GABA) was also studied.
Due to the fact that in functioning of the brain, in particular in processes of learning and memorizing, gammaaminobutyric acid (GABA) plays an important role, the possibility of the presence of a GABA-ergic component in the mechanism of action of the compound according to the present invention was studied. To this end, the ability of the compound according to the present invention to prevent convulsions caused by thiosemicarbazide, which is an inhibitor of an enzyme synthesizing gamma-aminobutyric acid, was studied.
The experiments were carried out on 140 white mice of 18-20 g mass. Thiosemicarbazide was administered hypodermally in the dose of 20 mg/kg. The compound according to the present invention was administered intraperitoneally in the doses of 50, 250 and 500 mg/kg 20 minutes after administration of thiosemicarbazide. For every dose 20 mice were used. The presence of the anticonvulsion activity was determined by the change of the latent period of occurrence of convulsions and by extension of the period of death of the animals. The experiments were carried out in comparison with pyracetam.

[8] = dose 4 times that of the compound of the invention

NC(=S)CN1CCCC1=S [Compound of the present invention, 1-thiocarbamylmethylpyrrolidine-2-thione]
lifespan of mice under acute hypoxic hypoxia ([1]; 100 mg/kg i.p.): 56.3 min | lifespan of mice under acute hypoxic hypoxia ([1]; 250 mg/kg i.p.): 60.3 min | lifespan of mice under acute hypoxic hypoxia ([1]; 500 mg/kg i.p.): 95.2 min | extension of mice lifespan as compared to the control ([1]; 750 mg/kg): 4 times | increase of mice lifespan as compared to the control ([1]; 750 mg/kg): 324.5% | lifespan of mice under acute hypoxic hypoxia ([1]; 750 mg/kg i.p.): 119.2 min | minimal effective dose ([1]; Mus musculus, ip, read-out: dose beginning with which resistance to acute oxygen insufficiency is enhanced and lifespan extended): 100 mg/kg | lifespan of mice at the height of 11,000 m ([2]; 100 mg/kg): 12.58 ± 8.64 min | lifespan of mice at the height of 11,000 m, % (control = 100%) ([2]; 100 mg/kg): 206.2 ± 59.7% | lifespan of mice at the height of 11,000 m ([2]; 250 mg/kg): 19.97 ± 4.93 min | lifespan of mice at the height of 11,000 m, % (control = 100%) ([2]; 250 mg/kg): 327.4 ± 80.8% | lifespan of mice at the height of 11,000 m ([2]; 500 mg/kg): 30.0 ± 0 min | lifespan of mice at the height of 11,000 m, % (control = 100%) ([2]; 500 mg/kg): 491.8 ± 0.0% | superiority to pyracetam in effect on the lifespan duration at 11,000 m ([2]; versus pyracetam): 3-4 times | height ceiling for mice (Hmax) ([3]; 250 mg/kg): 14.0 ± 0.707 thous. m | elevation of the height ceiling as compared to the control and pyracetam ([3]; 500 mg/kg): 4,000 m | height ceiling for mice (Hmax) ([3]; 500 mg/kg): 15.57 ± 0.85 thous. m | increase of resistance of mice to acute normobaric hypoxia as compared to the control ([4]; mice, 250 mg/kg): 4.5 times | lifespan at an acute normobaric hypoxia, mice ([4]; mice, 250 mg/kg): 22.21 ± 3.23 min | lifespan at an acute normobaric hypoxia, mice, % (control = 100%) ([4]; mice, 250 mg/kg): 469.5 ± 68.3% | superiority to pyracetam in effectiveness, mice ([4]; mice, versus pyracetam at 500 mg/kg): 3.2 times | superiority to pyracetam in effectiveness ([4]; versus pyracetam at 250 mg/kg): 5 times | increase of resistance of rats to acute normobaric hypoxia as compared to the control ([5]; 250 mg/kg): 1.5 times | lifespan at an acute normobaric hypoxia, rats ([5]; 250 mg/kg): 27.38 ± 7.07 min | lifespan at an acute normobaric hypoxia, rats, % (control = 100%) ([5]; 250 mg/kg): 147.2 ± 38.0% | superiority to pyracetam in effectiveness, rats ([5]; versus pyracetam at 500 mg/kg): 1.5 times | acceleration of elaboration and fixation of a conditioned reflex ([6]; 250 mg/kg): about 2 times | combinations of conditional and non-conditional irritation agents after which the reflex is fixed ([6]; 250 mg/kg): 49-65 combinations | lowering of the latent period of the conditioned reflex as compared to the control ([6]; 250 mg/kg): more than 2 times | latent period of the conditioned reflex of avoidance ([6]; 250 mg/kg, control 2.14±0.71 s): 0.87 ± 0.32 s | effective dose (learning and performing of conditioned response of avoidance in rats) ([6]; rats): 250 mg/kg | Latent period of convulsion occurrence ([7]; 50 mg/kg): 59 (51.5-66.5) min | Time period after which animals die ([7]; 50 mg/kg): 76 (64-88) min | Latent period of convulsion occurrence ([7]; 250 mg/kg): 82.6 (76.I-89.I) min | Time period after which animals die ([7]; 250 mg/kg): 100.8 min | Latent period of convulsion occurrence ([7]; 500 mg/kg): 80 (75.6-86.4) min | Time period after which animals die ([7]; 500 mg/kg): 105 (95-115) min | extension of the latent period of occurrence of convulsions as compared to the control ([7]; 250 and 500 mg/kg i.p.): 25-30% | extension of the period of death occurrence as compared to the control ([7]; 250 and 500 mg/kg i.p.): 45-50%

NC(=O)CN1CCCC1=O [Pyracetam, 1-carbamidomethylpyrrolidone-2, reference compound]
lifespan of mice under acute hypoxic hypoxia ([1]; 100 mg/kg i.p.): 27.4 min | lifespan of mice under acute hypoxic hypoxia ([1]; 250 mg/kg i.p.): 33.5 min | lifespan of mice under acute hypoxic hypoxia ([1]; 500 mg/kg i.p.): 39.6 min | lifespan of mice under acute hypoxic hypoxia ([1]; 750 mg/kg i.p.): 34.4 min | extension of mice lifespan as compared to the control ([1]; 2,000 mg/kg): 60% | lifespan of mice under acute hypoxic hypoxia ([1]; 2000 mg/kg i.p.): 45.0 min | lifespan of mice under acute hypoxic hypoxia ([1]; 2000 mg/kg i.p., listed as pyracetam): 45 min | lifespan of mice under acute hypoxic hypoxia ([1]; column 8, dose printed "100" mg/kg (between 750 and 2000), i.p.): 41.4 min | lifespan of mice at the height of 11,000 m ([2]; 100 mg/kg): inactive | lifespan of mice at the height of 11,000 m ([2]; 250 mg/kg): 6.16 ± 0.72 min | lifespan of mice at the height of 11,000 m, % (control = 100%) ([2]; 250 mg/kg): 101.0 ± 11.8% | lifespan of mice at the height of 11,000 m ([2]; 500 mg/kg): 8.13 ± 2.43 min | lifespan of mice at the height of 11,000 m, % (control = 100%) ([2]; 500 mg/kg): 133.3 ± 39.9% | height ceiling for mice (Hmax) ([3]; 250 mg/kg): 10.96 ± 0.91 thous. m | height ceiling for mice (Hmax) ([3]; 500 mg/kg): 11.55 ± 0.62 thous. m | lifespan at an acute normobaric hypoxia, mice ([4]; mice, 250 mg/kg): 3.73 ± 0.254 min | lifespan at an acute normobaric hypoxia, mice, % (control = 100%) ([4]; mice, 250 mg/kg): 87.7 ± 5.97% | lifespan at an acute normobaric hypoxia, mice ([4]; mice, 500 mg/kg): 6.08 ± 0.744 min | lifespan at an acute normobaric hypoxia, mice, % (control = 100%) ([4]; mice, 500 mg/kg): 143.1 ± 17.5% | lifespan at an acute normobaric hypoxia, rats ([5]; 250 mg/kg): inactive | lifespan at an acute normobaric hypoxia, rats ([5]; 500 mg/kg): 17.3 ± 5.25 min | lifespan at an acute normobaric hypoxia, rats, % (control = 100%) ([5]; 500 mg/kg): 93.0 ± 28.2% | effect on elaboration and fixation of a conditioned reflex ([6]; 1.000 mg/kg): effect similar to that produced by the compound according to the present inventuion in the dose of 250 mg/kg | latent period of the conditioned reflex of avoidance ([6]; 1.000 mg/kg): 0.98 ± 0.29 s | effect on elaboration and fixation of a conditioned reflex ([6]; 500 mg/kg): inactive | Latent period of convulsion occurrence ([7]; 1000 mg/kg): 66.6 (61.0-72.2) min | Time period after which animals die ([7]; 1000 mg/kg): 79.9 (64-96.8) min | Latent period of convulsion occurrence ([7]; 2000 mg/kg): 70.6 (65.6-75.6) min | Time period after which animals die ([7]; 2000 mg/kg): 82 (73.6-90.4) min | extension of the latent period of occurrence of convulsions as compared to the control [7, 8]: 10% | extension of the period of death as compared to the control [7, 8]: 17% | effect on thiosemicarbazide convulsions similar to that of the compound of the invention ([7]; higher doses): pronounced but very slightly
